Laboratory results: PMC8443738, “Interplay between membrane active host defense peptides and heme modulates their assemblies and in vitro activity” (Scientific Reports, 2021)
Several values for one entry are separate records, joined by “and”; a condition that tells them apart may be missing. Identical values can stand only once. Counter-ions that a name gives are not always drawn. Like-named read-outs stand apart in the source and are kept apart here.

Experiments:
[1] = cited from earlier work
Method: Based on CD spectral features, apparent dissociation constants in the 20–50 μM range could be estimated for the peptide-hemin interactions as a single dose of a molar equivalent of hemin (25 μM) was enough here to reach close-to-saturation levels for several peptides (Fig. 1). […] It should be noted that classical considerations on affinity determination might fail for the ...

[2] = Intrinsic Trp fluorescence quenching by hemin; format: binding; conditions: PBS, 25 °C
Method: Spectra were collected using a Jobin Yvon Fluoromax-3 spectrofluorometer at 25 °C in PBS. Spectra were recorded three times, averaged, and corrected by subtracting an appropriate blank. The Trp fluorophore was excited at 295 nm, and emission was monitored from 305 to 400 nm. 2 µM peptide was titrated with subsequent addition of hemin (up to 20 μM) in the presence and absence of liposomes (100 µM total lipid).

[3] = system: erythrocytes; conditions: cited from earlier work
From the text: Based on our results on model membranes, and in vitro assays on the selected cell line above, further activity alterations of the AMPs upon complex formation with hemin may be speculated. First of all, AMP–heme interaction could result in reduced antimicrobial activity by lowering the active peptide concentration. This can be achieved either by sequestering the free available peptide fraction by heme not allowing membrane interaction or by precluding formation of the active membrane-bound conformation of the peptides in the hemin-complexed membrane-associated form. A further interesting point ...

[4] = hemin-to-peptide ratio of 1:3; no lipid; cited from earlier work
[5] = system: EBC-1 cells; test: Cytostasis (viability) assay, Alamar Blue; format: cell-based, human; conditions: for live cell %: mean ± SEM; for dead cells: alone
Method: EBC-1 (squamous cell carcinoma, metastatic, origin: bronchi, JCRB No: JCRB0820[85],[86], originally purchased from Thermo Fisher Scientific and provided by the National Institute of Oncology, Budapest, Hungary) cells were maintained as an adherent culture in DMEM medium (Lonza) containing 10% FBS (Gibco) and supplemented with 2 mM of L-glutamine (Lonza), 1% non-essential amino acids (Gibco), 1 mM sodium pyruvate (Sigma-Aldrich), 1% penicillin–streptomycin (10,000 units penicillin and 10 mg streptomycin/ml, Gibco), at 37 °C in a humidified atmosphere containing 5% CO2.
For testing cytostatic effects, 3500 cells per well were plated in 96-well flat bottom tissue culture plates (Sarstedt, Nümbrecht, Germany) in complete DMEM medium. LL-37 stock solution was prepared in serum-free medium (SFM) at 200 µM, while heme compounds were dissolved first in 10 mM NaOH at 3 mM, sterile filtered, and diluted tenfold in SFM. Cells were incubated with the peptide, small molecules, or peptide-small molecule mixtures for 24 h. Then cells were washed three times with SFM and cultured further for 72 h in complete medium. Cytostatic activity was determined using the Alamar Blue assay, where 20 µl Alamar Blue (resazurin sodium salt, Sigma-Aldrich) solution (0.15 mg/ml, dissolved in PBS, pH 7.4) was added to each well. Following a 3 h incubation, fluorescence (λEx = 530/30 and λEm = 610/10 nm) was read using a Synergy H4 multi-mode microplate reader (BioTek, Winooski, VT, USA). Live cell percentage of treated cells was calculated compared to control cells treated with medium only. All measurements were performed in triplicates, and live cell % values together with SEM are presented.

[6] = system: EBC-1 cells; test: Cell morphology by bright field microscopy; format: cell-based, human; conditions: 3 h exposure; for cell morphology: 33 µM
Method: To visualize cell morphology changes, microscopic images of EBC-1 cells were captured. EBC-1 cells were plated in a 96-well flat bottom tissue culture plate and treated with peptide, heme compounds, and their mixtures as described in the above section. Microscopic images of the adherent cells were taken after the first 3 h of the treatment using an Olympus CKX41 microscope (Hamburg, Germany, objective: 20×).

[7] = Dynamic light scattering of peptide-hemin assemblies; format: physicochemical; conditions: three-component systems: 25 µM peptide, 75 µM hemin, 635 µM lipid (PC or PC/PG), PBS, various mixing order
Method: Particle size and size distribution of the peptide-small molecule mixtures were measured at 20 °C using a W130i dynamic light scattering device (DLS, Avid Nano Ltd., High Wycombe, UK) with a diode laser (660 nm) and a photodiode detector. Low volume disposable cuvettes with 1 cm path-length were used (UVette, Eppendorf Austria GmbH). Samples prepared for CD experiments were measured after completing the titration. The time-dependent autocorrelation function was measured for 10 s, repeated 10 times.

Compound: melittin
- Kd ([1]; read-out: binding strength, interaction with hemin): 60 to 120 µM
- Trp fluorescence quenching by hemin ([2]; 2 µM peptide with PC liposomes): complete signal loss
- hemolytic effects [3]: strong
- remaining Trp fluorescence intensity on hemin quenching [4]: 5–10%

Compound: C=CC1=C(C)/C(=C/C2=NC(=C\c3[nH]c(/C=C4\NC(=O)C(C)=C4C=C)c(C)c3CCC(=O)O)/C(CCC(=O)O)=C2C)NC1=O [biliverdin, biliverdin HCl]
- toxicity ([5]; EBC-1, up to 100 µM (Fig. S12)): No significant toxicity
- cytostatic effect ([5]; EBC-1, up to 100 µM, 24 h treatment + 72 h culture, Alamar Blue): No cytostatic effect
- cell morphology [6]: Non-damaged cells

Compound: CM15
- Trp fluorescence quenching by hemin ([2]; 2 µM peptide, 10 µM hemin, no lipid): total signal loss
- hemolytic effects [3]: moderate
- average particle size of aggregates (DLS) [7]: ≤ 1 µm

Compound: LLGDFFRKSKEKIGKEFKRIVQRIKDFLRNLVPRTES [LL-37, the only human cathelicidin, a host defense peptide]
- Kd ([1]; calculated, read-out: Kd, interaction with hemin): 20 to 36 µM
- live cell percentage ([5]; EBC-1, 17 µM LL-37 administered together with hemin or biliverdin): 25–35%
- live cell % ([5]; EBC-1, 17 µM LL-37 alone, relative to untreated control, n = 3): 4.7 ± 1.3% and ~ 5%
- live cell % ([5]; EBC-1, 17 µM LL-37 with biliverdin at 1:3 ratio, n = 3): 34 ± 6%
- live cell % ([5]; EBC-1, 17 µM LL-37 with hemin at 1:1 peptide to hemin ratio, n = 3): 36 ± 12%
- live cell % ([5]; EBC-1, 17 µM LL-37 with hemin at 1:3 ratio, n = 3): 23 ± 6%
- cells killed ([5]; EBC-1, LL-37 at 17 µM, 24 h treatment + 72 h culture, Alamar Blue, n = 3): ~ 90%
- cells killed ([5]; EBC-1, LL-37 at 50 µM, 24 h treatment + 72 h culture, Alamar Blue, n = 3): almost all cells
- cytostatic effect ([5]; EBC-1, LL-37 at ~5 µM, 24 h treatment + 72 h culture, Alamar Blue, n = 3): no significant effect
- cell morphology alterations ([6]; 17 µM LL-37): shrinkage, and membrane defects

Compound: hemin
- concentration with dose-dependent cytostatic effect ([5]; EBC-1 (Fig. S12)): ≥ 33 µM
- dead cells ([5]; EBC-1, 33 µM, 24 h treatment + 72 h culture, Alamar Blue): ~ 20%
- dead cells ([5]; EBC-1, 100 µM, 24 h treatment + 72 h culture, Alamar Blue): ~60%
- concentration at which cytostatic ([5]; EBC-1, compound alone, 24 h treatment + 72 h culture, Alamar Blue): > 10 µM
- cell morphology [6]: Non-damaged cells
